Assay results: patent US20080227713A1, “Oxidized Human Bnp” (priority 2005, published 2008)
Marks after values point to notes of the source that are not given here.

Legend:
plasma cyclic GMP [1] = assay: Plasma cyclic GMP during dose-escalating continuous intravenous infusion in conscious rabbits; format: in vivo; settings: rabbit; for Mean Plasma Cyclic GMP ± SD: n = 6
Text: (§1) New Zealand White male rabbits (R & R Rabbitry, WA) weighing 2.5 to 3.0 kg, were used in the study. Upon receipt, the animals were allowed a 1-week acclimation period at the animal facility to ensure proper health status prior to the study. On the day of the study, the rabbits were weighed and placed in an open top plexiglass restrainers with adjustable plexiglass and nylon covers. The ears were shaved, 2% Lidocaine HCl (Xylocalne jelly, Astra, Westborough, Mass.) was applied topically on the surface of the ears, and IV catheters (Angiocath, Becton Dickinson, Utah) fitted with heparin locks were inserted into the intermedial branch of the peripheral ear vein for drug administration and into the central ear artery for repeated blood sampling.
(§2) Blood samples were drawn 20 minutes prior to and 0, 50, 55, 60, 110, 115, 120, 170, 175, and 180 minutes following initiation of the infusion. […] Blood samples were taken at 20 minutes prior to dosing, immediately prior to dosing and 5, 10, 15, 30, 60, and 90 minutes after dosing. Blood samples (3 mL) was drawn at each time point and the volume replaced with an equal volume of 0.9% NaCl. Blood was collected into EDTA coated tubes containing aprotinin (150 kallikrein inhibitory units/tube) and centrifuged immediately.
(§3) Plasma cyclic GMP levels were determined by radioimmunoassay (DuPont, Boston, Mass.). […] Separation of the bound from free antigen was performed using a pre-reacted primary and secondary antibody complex. Prior to the assay, the plasma samples were extracted with ethanol and the supernate evaporated to dryness in a speed vac concentrator (Savant Instruments, Holbrook, N.Y.). The dried samples were reconstituted with sodium acetate buffer. Plasma cyclic GMP levels were determined by interpolation from the standard curve (0.01 to 10 pmol/mL).

plasma cyclic GMP [2] = assay: Plasma cyclic GMP after a single intravenous bolus in conscious rabbits; format: in vivo; settings: rabbit, single iv bolus 30 μg/kg, n = 4
Text: as §1, §2, §3

[3] = Plasma peptide levels (EIA) after a single intravenous bolus in conscious rabbits; settings: male, New Zealand White, in vivo, 30 ug/kg, rabbit, single iv bolus 30 μg/kg, n = 4
Text: as §1, §2
(§4) The plasma samples were diluted appropriately with pooled normal rabbit plasma prior to assay. […] Levels of the biotinylated probe were measured by using a sensitive enzyme based detection system, avidin-HRP, and a […] that provided a colorimetric endpoint.

[4] = Plasma peptide levels (EIA) during dose-escalating continuous intravenous infusion in conscious rabbits; format: in vivo; settings: rabbit; for Plasma steady state concentration: n = 6
Text: as §1, §2, §4

In the case of CC[C@H](C)[C@@H]1NC(=O)[C@H](CCCNC(=N)N)NC(=O)[C@H](CC(=O)O)NC(=O)[C@H](CCSC)NC(=O)[C@H](CCCCN)NC(=O)[C@H](CCCNC(=N)N)NC(=O)CNC(=O)[C@H](Cc2ccccc2)NC(=O)[C@@H](NC(=O)CNC(=O)[C@H](CO)NC(=O)CNC(=O)[C@H](CCC(N)=O)NC(=O)[C@@H](NC(=O)[C@H](CCSC)NC(=O)[C@H](CCCCN)NC(=O)[C@@H]2CCCN2C(=O)[C@@H](N)CO)C(C)C)CSSC[C@@H](C(=O)N[C@@H](CCCCN)C(=O)N[C@H](C(=O)N[C@@H](CC(C)C)C(=O)N[C@@H](CCCNC(=N)N)C(=O)N[C@@H](CCCNC(=N)N)C(=O)N[C@@H](Cc2c[nH]cn2)C(=O)O)C(C)C)NC(=O)CNC(=O)[C@H](CC(C)C)NC(=O)CNC(=O)[C@H](CO)NC(=O)[C@H](CO)NC(=O)[C@H](CO)NC(=O)[C@H](CO)NC1=O [hBNP, Ser^1-Pro^2-Lys^3-Met^4-Val^5-Gln^6-Gly^7-Ser^8-Gly^9-Cys^10-Phe^11-Gly^12-Arg^13-Lys^14-Met^15-Asp^16-Arg^17-Ile^18-Ser^19-Ser^20-Ser^21-Ser^22-Gly^23-Leu^24-Gly^25-Cys^26-Lys^27-Val^28-Leu^29-Arg^30-Lys^31-His^32], the “Mean Plasma Cyclic GMP ± SD” value (plasma cyclic GMP [1]; 0 μg/kg/min (saline), 0 min) is reported as 30 ± 16 pmol/mL, the “Mean Plasma Cyclic GMP ± SD” value (plasma cyclic GMP [1]; 0 μg/kg/min (saline), −20 min) is reported as 34 ± 15 pmol/mL and the “Change of plasma cyclic GMP during continuous infusion” value (plasma cyclic GMP [1]; 0.05, 0.1, 0.2 μg/kg/min, in words) is reported as “dose-related increase in plasma cyclic GMP”. For the same molecule, the “Mean Plasma Cyclic GMP ± SD” value (plasma cyclic GMP [1]; iv infusion 0.05 μg/kg/min, 50 min) was 68 ± 33 pmol/mL, the “Mean Plasma Cyclic GMP ± SD” value (plasma cyclic GMP [1]; iv infusion 0.05 μg/kg/min, 55 min) was 87 ± 29 pmol/mL and the “Mean Plasma Cyclic GMP ± SD” value (plasma cyclic GMP [1]; iv infusion 0.05 μg/kg/min, 60 min) was 92 ± 34 pmol/mL. The “Mean Plasma Cyclic GMP ± SD” value (plasma cyclic GMP [1]; iv infusion 0.1 μg/kg/min, 110 min) was 131 ± 38 pmol/mL, the “Mean Plasma Cyclic GMP ± SD” value (plasma cyclic GMP [1]; iv infusion 0.1 μg/kg/min, 115 min) was 122 ± 35 pmol/mL and the “Mean Plasma Cyclic GMP ± SD” value (plasma cyclic GMP [1]; iv infusion 0.1 μg/kg/min, 120 min) was 125 ± 27 pmol/mL. The “Mean Plasma Cyclic GMP ± SD” value (plasma cyclic GMP [1]; iv infusion 0.2 μg/kg/min, 170 min) was 159 ± 37 pmol/mL, the “Mean Plasma Cyclic GMP ± SD” value (plasma cyclic GMP [1]; iv infusion 0.2 μg/kg/min, 175 min) was 170 ± 43 pmol/mL and the “Mean Plasma Cyclic GMP ± SD” value (plasma cyclic GMP [1]; iv infusion 0.2 μg/kg/min, 180 min) was 145 ± 31 pmol/mL. For the same molecule, the “Plasma Cyclic GMP” value (plasma cyclic GMP [2]; 0 min (before dosing)) was 47 pmol/mL, the “Plasma Cyclic GMP” value (plasma cyclic GMP [2]; 5 min) was 201* pmol/mL and the “Plasma Cyclic GMP” value (plasma cyclic GMP [2]; 10 min) was 214* pmol/mL. For the same molecule, the “Plasma Cyclic GMP” value (plasma cyclic GMP [2]; 15 min) was 189* pmol/mL, the “Plasma Cyclic GMP” value (plasma cyclic GMP [2]; 30 min) was 146 pmol/mL and the “Plasma Cyclic GMP” value (plasma cyclic GMP [2]; 60 min) was 65 pmol/mL. The “Plasma Cyclic GMP” value (plasma cyclic GMP [2]; 90 min) was 40 pmol/mL, the “Plasma Cyclic GMP” value (plasma cyclic GMP [2]; −20 min (before dosing)) was 46 pmol/mL and the level at 5 min ([3]; 5 min) was 50.1 ng/mL. The level at 10 min ([3]; 10 min) was 12 ng/mL, the level at […] ([3]; 15 min) was 4.67 ng/mL and the level at 0.5 h ([3]; 30 min) was 1.21 ng/mL. For the same molecule, the level at 1 h ([3]; 60 min) was 0.122 ng/mL, the level at […] ([3]; 90 min) was 0.051 ng/mL and the level at 50 min ([4]; male, New Zealand White, plasma, 0.05 ug/kg/min, iv infusion 0.05 μg/kg/min, 50 min, N = 6) was 1.39 ng/mL. For the same molecule, the level at 55 min ([4]; male, New Zealand White, plasma, 0.05 ug/kg/min, iv infusion 0.05 μg/kg/min, 55 min, N = 6) was 1.28 ng/mL, the level at 1 h ([4]; male, New Zealand White, plasma, 0.05 ug/kg/min, iv infusion 0.05 μg/kg/min, 60 min, N = 6) was 1.29 ng/mL and the level at 110 min ([4]; male, New Zealand White, plasma, 0.1 ug/kg/min, iv infusion 0.1 μg/kg/min, 110 min, N = 6) was 3.85 ng/mL. The level at 115 min ([4]; male, New Zealand White, plasma, 0.1 ug/kg/min, iv infusion 0.1 μg/kg/min, 115 min, N = 6) was 3.7 ng/mL, the level at 2 h ([4]; male, New Zealand White, plasma, 0.1 ug/kg/min, iv infusion 0.1 μg/kg/min, 120 min, N = 6) was 2.75 ng/mL and the level at 170 min ([4]; male, New Zealand White, plasma, 0.2 ug/kg/min, iv infusion 0.2 μg/kg/min, 170 min, N = 6) was 7.4 ng/mL. The level at 175 min ([4]; male, New Zealand White, plasma, 0.2 ug/kg/min, iv infusion 0.2 μg/kg/min, 175 min, N = 6) was 8.07 ng/mL, the level at 3 h ([4]; male, New Zealand White, plasma, 0.2 ug/kg/min, iv infusion 0.2 μg/kg/min, 180 min, N = 6) was 6.59 ng/mL and the level at 0 h ([4]; male, New Zealand White, plasma, iv, 0 ug/kg/min, 0 μg/kg/min (before infusion), 0 min, N = 6) was 0.146 ng/mL. The level at -20 min ([4]; male, New Zealand White, plasma, iv, 0 ug/kg/min, 0 μg/kg/min (before infusion), −20 min, N = 6) was 0.166 ng/mL, the “Plasma steady state concentration” value ([4]; infusion rate 0.05 μg/kg/min) was 1319 ± 615 pg/mL and the “Plasma steady state concentration” value ([4]; infusion rate 0.1 μg/kg/min) was 3434 ± 952 pg/mL. For the same molecule, the “Plasma steady state concentration” value ([4]; infusion rate 0.2 μg/kg/min) was 7357 ± 1569 pg/mL.
